Patent US20220089578A1, “COMPOUNDS AS GLP-1R AGONISTS” (Terns Pharmaceuticals, Inc., priority 2020, published 2022)
pEC50: −log10 of the molar value.

Target: human GLP-1R (Homo sapiens, UniProt P43220)
Experiment: GLP-1R Cell Assay 1: cAMP Hunter CHO-K1 GLP1R Gs cell line, HitHunter cAMP assay
Assay type: cell-based
Conditions: cAMP Hunter CHO-K1 GLP1R Gs cells, percent activity normalized to Exendin-4
Outline: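 Luminescent enzyme-fragment-complementation immunoassay quantified cellular cAMP after 30-60 min compound exposure at 37 °C in HBSS/10 mM HEPES. Data from duplicate runs were normalised to Exendin-4 and fitted nonlinearly for EC50.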

human GLP-1R, sequence (P43220 24-463): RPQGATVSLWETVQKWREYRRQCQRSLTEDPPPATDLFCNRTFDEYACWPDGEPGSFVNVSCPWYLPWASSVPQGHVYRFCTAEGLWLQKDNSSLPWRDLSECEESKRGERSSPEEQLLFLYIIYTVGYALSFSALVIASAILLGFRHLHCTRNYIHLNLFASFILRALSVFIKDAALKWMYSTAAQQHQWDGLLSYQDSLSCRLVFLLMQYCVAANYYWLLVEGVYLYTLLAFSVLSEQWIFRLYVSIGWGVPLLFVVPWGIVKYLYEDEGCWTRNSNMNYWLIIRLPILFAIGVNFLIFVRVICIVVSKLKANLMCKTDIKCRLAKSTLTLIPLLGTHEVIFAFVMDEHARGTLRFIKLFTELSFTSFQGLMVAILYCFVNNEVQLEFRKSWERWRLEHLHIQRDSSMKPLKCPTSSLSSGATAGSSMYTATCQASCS

SMILES	pEC50 (Table 2)	pEC50 (Table 3)
N#Cc1ccc(COc2cccc(C3CCN([C@@H]4CCn5c4nc4ccc(C(=O)O)cc45)CC3)n2)c(F)c1 (single isomer, unassigned) [Compound 6-P1]	6.61	
C[C@@H]1COC[C@@H](N2CCC(c3cccc(OCc4ccc(C#N)cc4F)n3)CC2)c2nc3ccc(C(=O)O)cc3n21 [Compound 96, (1R,5S)-5-(4-(6-((4-cyano-2-fluorobenzyl)oxy)pyridin-2-yl)piperidin-1-yl)-1-methyl-1,2,4,5-tetrahydrobenzo[4,5]imidazo[1,2-d][1,4]oxazepine-9-carboxylic acid]	7.11	
N#Cc1ccc([C@H]2CCc3c(cccc3N3CCN(Cc4nc5ccc(C(=O)O)cc5n4C[C@@H]4CCO4)CC3)O2)c(F)c1 (single isomer, unassigned) [Compound 151-P1]		6.58
N#Cc1ccc2c(c1)CN(c1cccc(N3CCN(Cc4nc5ccc(C(=O)O)cc5n4C[C@@H]4CCO4)CC3)n1)CC2 [Compound 77, (S)-2-((4-(6-(7-cyano-3,4-dihydroisoquinolin-2(1H)-yl)pyridin-2-yl)piperazin-1-yl)methyl)-1-(oxetan-2-ylmethyl)-1H-benzo[d]imidazole-6-carboxylic acid]	6.93	
CCn1cncc1Cn1c(CN2CCC(c3cccc(OCc4nc5ccccc5s4)n3)CC2)nc2ccc(C(=O)O)cc21 [Compound 125, 2-((4-(6-(benzo[d]thiazol-2-ylmethoxy)pyridin-2-yl)piperidin-1-yl)methyl)-1-((1-ethyl-1H-imidazol-5-yl)methyl)-1H-benzo[d]imidazole-6-carboxylic acid]	10.48	
C[C@]1(c2cccc(OCc3ccc(C#N)cc3F)n2)CCN(Cc2nc3ccc(C(=O)O)cc3n2C[C@@H]2CCO2)C1 (single isomer, unassigned) [Compound 20-P2]	6.78	
O=C(O)c1ccc2nc(CN3CCN(c4cccc(OCc5ccc(Cl)cn5)n4)CC3)n(C[C@@H]3CCO3)c2c1 [Compound 58, (S)-2-((4-(6-((5-chloropyridin-2-yl)methoxy)pyridin-2-yl)piperazin-1-yl)methyl)-1-(oxetan-2-ylmethyl)-1H-benzo[d]imidazole-6-carboxylic acid]	9.66	
O=C(O)c1ccc2nc(CN3CCN(c4cccc(OCC5CCC(F)(F)CC5)n4)CC3)n(C[C@@H]3CCO3)c2c1 [Compound 36, (S)-2-((4-(6-((4,4-difluorocyclohexyl)methoxy)pyridin-2-yl)piperazin-1-yl)methyl)-1-(oxetan-2-ylmethyl)-1H-benzo[d]imidazole-6-carboxylic acid]	7.44	
O=C(O)c1ccc2nc(CN3CCN(c4ccc5c(n4)N(Cc4ccccc4)C(=O)CO5)CC3)n(C[C@@H]3CCO3)c2c1 [Compound 154, (S)-2-((4-(4-benzyl-3-oxo-3,4-dihydro-2H-pyrido[3,2-b][1,4]oxazin-6-yl)piperazin-1-yl)methyl)-1-(oxetan-2-ylmethyl)-1H-benzo[d]imidazole-6-carboxylic acid]		< 6.30
O=C(O)c1ccc2nc(CN3CCC(n4nc(OCc5ccccc5)c5c4CCCC5)CC3)n(C[C@@H]3CCO3)c2c1 [Compound 23, (S)-2-((4-(3-(benzyloxy)-4,5,6,7-tetrahydro-1H-indazol-1-yl)piperidin-1-yl)methyl)-1-(oxetan-2-ylmethyl)-1H-benzo[d]imidazole-6-carboxylic acid]	< 6.30	
O=C(O)c1ccc2nc(CN3CCN(c4cccc(OCc5ccc6ncoc6c5)n4)CC3)n(C[C@@H]3CCO3)c2c1 [Compound 75, (S)-2-((4-(6-(benzo[d]oxazol-6-ylmethoxy)pyridin-2-yl)piperazin-1-yl)methyl)-1-(oxetan-2-ylmethyl)-1H-benzo[d]imidazole-6-carboxylic acid]	8.66	
Cn1c(COc2cccc(N3CCN(Cc4nc5ccc(C(=O)O)cc5n4C[C@@H]4CCO4)CC3)n2)nc2ccccc21 [Compound 71, (S)-2-((4-(6-((1-methyl-1H-benzo[d]imidazol-2-yl)methoxy)pyridin-2-yl)piperazin-1-yl)methyl)-1-(oxetan-2-ylmethyl)-1H-benzo[d]imidazole-6-carboxylic acid]	7.80	
O=C(O)c1ccc2nc(CN3CCN(c4cccc(OCC5COC5)n4)CC3)n(C[C@@H]3CCO3)c2c1 [Compound 47, (S)-1-(oxetan-2-ylmethyl)-2-((4-(6-(oxetan-3-ylmethoxy)pyridin-2-yl)piperazin-1-yl)methyl)-1H-benzo[d]imidazole-6-carboxylic acid]	< 6.30	
O=C(O)c1ccc2nc(CN3CCC(n4ccc(COc5ccccc5)n4)CC3)n(C[C@@H]3CCO3)c2c1 [Compound 26-P1, (S)-1-(oxetan-2-ylmethyl)-2-((4-(3-(phenoxymethyl)-1H-pyrazol-1-yl)piperidin-1-yl)methyl)-1H-benzo[d]imidazole-6-carboxylic acid]	< 6.30	
N#Cc1ccc2c(c1)CCN(c1cccc(N3CCN(Cc4nc5ccc(C(=O)O)cc5n4C[C@@H]4CCO4)CC3)n1)CC2 [Compound 2, (S)-2-((4-(6-(7-cyano-4,5-dihydro-1H-benzo[d]azepin-3(2H)-yl)pyridin-2-yl)piperazin-1-yl)methyl)-1-(oxetan-2-ylmethyl)-1H-benzo[d]imidazole-6-carboxylic acid]	< 6.30	
C[C@H]1COC[C@H](N2CCC(c3cccc(OCc4ccc(C#N)cc4F)n3)CC2)c2nc3ccc(C(=O)O)cc3n21 (single isomer, unassigned) [Compound 8-P1]	< 6.30	
CN1CCC(COc2cccc(N3CCN(Cc4nc5ccc(C(=O)O)cc5n4C[C@@H]4CCO4)CC3)n2)CC1 [Compound 37, (S)-2-((4-(6-((1-methylpiperidin-4-yl)methoxy)pyridin-2-yl)piperazin-1-yl)methyl)-1-(oxetan-2-ylmethyl)-1H-benzo[d]imidazole-6-carboxylic acid]	< 6.30	
N#Cc1cccc2c1CCN(c1cccc(N3CCN(Cc4nc5ccc(C(=O)O)cc5n4C[C@@H]4CCO4)CC3)n1)CC2 [Compound 79, (S)-2-((4-(6-(6-cyano-1,2,4,5-tetrahydro-3H-benzo[d]azepin-3-yl)pyridin-2-yl)piperazin-1-yl)methyl)-1-(oxetan-2-ylmethyl)-1H-benzo[d]imidazole-6-carboxylic acid]	6.69	
N#Cc1ccc(N2CCc3ccc(N4CCN(Cc5nc6ccc(C(=O)O)cc6n5C[C@@H]5CCO5)CC4)nc3C2)c(F)c1 [Compound 144, (S)-2-((4-(7-(4-cyano-2-fluorophenyl)-5,6,7,8-tetrahydro-1,7-naphthyridin-2-yl)piperazin-1-yl)methyl)-1-(oxetan-2-ylmethyl)-1H-benzo[d]imidazole-6-carboxylic acid]		< 6.30
N#Cc1cccc2c1CN(c1cccc(N3CCN(Cc4nc5ccc(C(=O)O)cc5n4C[C@@H]4CCO4)CC3)n1)CC2 [Compound 109, (S)-2-((4-(6-(8-cyano-3,4-dihydroisoquinolin-2(1H)-yl)pyridin-2-yl)piperazin-1-yl)methyl)-1-(oxetan-2-ylmethyl)-1H-benzo[d]imidazole-6-carboxylic acid]	8.44	
N#Cc1ccc(COc2cccc(N3CCN(Cc4nc5ccc(C(=O)O)cc5n4C[C@@H]4CCS4(=O)=O)CC3)n2)c(F)c1 (single isomer, unassigned) [Compound 140-P1]	9.24	
O=C(O)c1ccc2nc(CN3CCN(c4cccc(OCc5nc6ccccc6s5)n4)CC3)n(C[C@@H]3CCO3)c2c1 [Compound 69, (S)-2-((4-(6-(benzo[d]thiazol-2-ylmethoxy)pyridin-2-yl)piperazin-1-yl)methyl)-1-(oxetan-2-ylmethyl)-1H-benzo[d]imidazole-6-carboxylic acid]	9.40	
N#Cc1ccc(COc2cccc(C3CCN([C@H]4CCCCn5c4nc4ccc(C(=O)O)cc45)CC3)n2)c(F)c1 [Compound 91, (S)-6-(4-(6-((4-cyano-2-fluorobenzyl)oxy)pyridin-2-yl)piperidin-1-yl)-7,8,9,10-tetrahydro-6H-benzo[4,5]imidazo[1,2-a]azepine-2-carboxylic acid]	7.76	
O=C(O)c1ccc2nc(CN3CC[C@@]4(c5cccc(OCc6nc7ccccc7s6)n5)C[C@H]4C3)n(C[C@@H]3CCO3)c2c1 (single isomer, unassigned) [Compound 104-P1]	8.31	
N#Cc1ccc2c(c1)CCCN2c1cccc(N2CCN(Cc3nc4ccc(C(=O)O)cc4n3C[C@@H]3CCO3)CC2)n1 [Compound 76, (S)-2-((4-(6-(6-cyano-3,4-dihydroquinolin-1(2H)-yl)pyridin-2-yl)piperazin-1-yl)methyl)-1-(oxetan-2-ylmethyl)-1H-benzo[d]imidazole-6-carboxylic acid]	< 6.30	
O=C(O)c1ccc2nc(CN3CCN(c4cccc(N5CCc6cc(Cl)cc(F)c6C5)n4)CC3)n(C[C@@H]3CCO3)c2c1 [Compound 127, (S)-2-((4-(6-(6-chloro-8-fluoro-3,4-dihydroisoquinolin-2(1H)-yl)pyridin-2-yl)piperazin-1-yl)methyl)-1-(oxetan-2-ylmethyl)-1H-benzo[d]imidazole-6-carboxylic acid]	8.96	
N#Cc1ccc2nc(COc3cccc(N4CCN(Cc5nc6ccc(C(=O)O)cc6n5C[C@@H]5CCO5)CC4)n3)sc2c1 [Compound 110, (S)-2-((4-(6-((6-cyanobenzo[d]thiazol-2-yl)methoxy)pyridin-2-yl)piperazin-1-yl)methyl)-1-(oxetan-2-ylmethyl)-1H-benzo[d]imidazole-6-carboxylic acid]	9.67	
N#Cc1ccc(COc2cccc(N3CCC(Cc4nc5ccc(C(=O)O)cc5n4C[C@@H]4CCO4)CC3)n2)c(F)c1 [Compound 15, (S)-2-((1-(6-((4-cyano-2-fluorobenzyl)oxy)pyridin-2-yl)piperidin-4-yl)methyl)-1-(oxetan-2-ylmethyl)-1H-benzo[d]imidazole-6-carboxylic acid]	9.51	
N#Cc1ccc(COc2cccc(C3CCN([C@@H]4COCCn5c4nc4ccc(C(=O)O)cc45)CC3)n2)c(F)c1 (single isomer, unassigned) [Compound 7-P2]	< 6.30	
